Converted amounts (≈) assume the structure as drawn. Marks after values point to notes of the source that are not given here.
Assays:
[1] = physchem; details: 25 °C, water, thermodynamic from solid
[2] = Body weights of SJSA-1 implanted nude mice (side effects); assay type: in vivo; details: for Body Weights X ± SD (g), End: End (21 days after inoculation), doxorubicin 3.0 mg/kg i.p. x6, rac-SIP 30.0 mg/kg gavage x9, SIP-PEG compounds 30.0 mg/kg i.p. x9, rac-SIP-MPEG-2000 50.0 mg/kg i.p. x9; for body weight decreased, compared with the solvent control group: SIP-PEG compounds 30.0 mg/kg i.p. (MPEG-2000 50.0 mg/kg), SIP oral 30.0 mg/kg; for Body Weights X ± SD (g), Start: Start of administration, dose per group 3.0/30.0/50.0 mg/kg as in Table 1
Method: (§1) Tumor cells (SJSA-1) were harvested under aseptic conditions, and were adjusted to a cell density of 1×10^7 cells/ml with sterile physiological saline. 0.2 ml was inoculated under the skin of the axilla of nude mice, and the tumor was grown to have a diameter of 1 cm. The tumor was removed under aseptic conditions and cut into tumor masses with a size of 2.0 mm×2.0 mm, and evenly inoculated under the skin of the axilla of the nude mice. When the tumor volume reached about 250 mm^3 (8 days after inoculation), the animals were administered in groups with 9 mice in each group, and the animals with poor tumor growth were excluded. The control group used physiological saline as a control. […] Body weight was weighted 3 times a week, and the length a and the width b of the tumor were measured with a vernier caliper, and the volume of the tumor was calculated according to the formula V=a×b^2/2, where a is the length of the tumor and b is the width of the tumor. 21 Days after the inoculation, the nude mice were dislocated and photographed, and then the tumor was peeled off, weighed and photographed. RTV (relative tumor volume) and tumor inhibition rate were calculated. At the same time, the peripheral blood of nude mice was taken to count blood cells.
(§2) The data were processed by EXCEL software and expressed by Mean±SD, and the inter-group analysis was statistically processed using t test.

[3] = system: SJSA-1 xenografted tumor; assay: Inhibitory effect on the growth of SJSA-1 xenografted tumor in nude mice; assay type: in vivo; details: for Tumor volumes X ± SD (mm^3), End: End (21 days after inoculation), doxorubicin 3.0 mg/kg i.p. x6, rac-SIP 30.0 mg/kg gavage x9, SIP-PEG compounds 30.0 mg/kg i.p. x9, rac-SIP-MPEG-2000 50.0 mg/kg i.p. x9; for Tumor volumes X ± SD (mm^3), Start: Start of administration (8 days after inoculation); for Weights of Tumor X ± SD: tumor peeled off 21 days after inoculation; for Weights of Tumor X ± SD / Inhibition rate (%) on the basis of tumor volume / Inhibition rate (%) on the basis of tumor weight: doses and routes as in E5; for Inhibition rate (%) on the basis of tumor volume / Inhibition rate (%) on the basis of tumor weight: vs saline control; for Inhibition rate (%) on the basis of tumor volume: End; for inhibitory effect on tumor growth compared with PEG-free rac-SIP given by gastrointestinal administration: administered by injection, 30.0 mg/kg (rac-SIP-MPEG-2000 50.0 mg/kg)
Method: 72 Female Balb/c/nu nude mice (weighting 15-19 g) were provided by Beijing Huafukang BioScience Co., Inc. Certificate No.: SOCK (Beijing) 2014-0004.
(§3) Doxorubicin: prepared in sterile physiological saline at a concentration of 0.3 mg/ml; the administration dosage was 3.0 mg/kg; and the administration volume was 10 ml/kg.
(§4) rac-SIP: prepared in a solvent consisting of 4% DMA, 30% PEG400, and 66% (by volume) sterile distilled water to a solution with a concentration of 1.5 mg/ml; the administration dosage was 30.0 mg/kg, and the administration volume was 20 ml/kg.
(§5) rac-SIP-PEG-2: prepared in a solvent consisting of polyoxyethylene castor oil:95% ethanol:sterile physiological saline (1.5:1.5:7 by volume) to drug solutions with concentrations of 1.5 mg/ml and 3.0 mg/ml. The administration dosages were 15.0 mg/kg and 30.0 mg/kg. The administration volume was 10 ml/kg.
(§6) rac-SIP-PEG-3: prepared in sterile physiological saline to a solution with a concentration of 3.0 mg/ml. The administration dose was 30.0 mg/kg. The administration volume was 10 ml/kg.
(§7) chiral-R-SIP-PEG-3: prepared in sterile physiological saline to a solution with a concentration of 3.0 mg/ml. The administration dose was 30.0 mg/kg. The administration volume was 10 ml/kg.
(§8) rac-SIP-PEG-7: prepared in sterile physiological saline to a solution with a concentration of 3.0 mg/ml. The administration dose was 30.0 mg/kg. The administration volume was 10 ml/kg.
(§9) The administration dose was 50.0 mg/kg. The administration volume was 10 ml/kg.
Doxorubicin: at a dose of 3.0 mg/kg, administered intraperitoneally, once every other day, for a total of 6 times.
rac-SIP: at a dose of 30.0 mg/kg, administered by gavage, once a day, 6 times a week, for a total of 9 times.
rac-SIP-PEG-2: at a dose of 30.0 mg/kg, administered intraperitoneally, once a day, 6 times a week, for a total of 9 times.
rac-SIP-PEG-3: at a dose of 30.0 mg/kg, administered intraperitoneally, once a day, 6 times a week, for a total of 9 times.
chiral-R-SIP-PEG-3: at a dose of 30.0 mg/kg, administered intraperitoneally, once a day, 6 times a week, for a total of 9 times.
rac-SIP-PEG-7: at a dose of 30.0 mg/kg, administered intraperitoneally, once a day, 6 times a week, for a total of 9 times.
as §1, §2

[4] = Drug preparation: dissolving in physiological saline; assay type: physicochemical; details: 3.0 mg/ml (Example 14: 5.0 mg/ml) in sterile physiological saline
Method: as §3, §4, §5, §6, §7, §8, §9

Row | solubility at 24 h [1] | Molecule | Body Weights X ± SD (g), End [2] | body weight decreased, compared with the solvent control group [2] | Body Weights X ± SD (g), Start [2] | Tumor volumes X ± SD (mm^3), End [3] | Tumor volumes X ± SD (mm^3), Start [3] | Weights of Tumor X ± SD [3] | Inhibition rate (%) on the basis of tumor volume [3] | Inhibition rate (%) on the basis of tumor weight [3] | inhibitory effect on tumor growth compared with PEG-free rac-SIP given by gastrointestinal administration [3] | dissolving in physiological saline for administration [4] | body weight increased, compared with the solvent control group ([2]; 30.0 mg/kg i.p.) | Inhibition rate (%) on the basis of tumor volume ([3]; listed as chiral-R-PEG-3)
1 | > 400 µg/mL | COCCOCCOC(=O)OC(C)OC(=O)c1ccc(NC(=O)[C@@H]2N[C@@H](CC(C)(C)C)[C@@]3(C(=O)Nc4cc(Cl)ccc43)[C@H]2c2cccc(Cl)c2F)c(OC)c1 (mixture of isomers) [rac-SIP-PEG-2, Rac-9-oxo-2,5,8,10-tetraoxadodecan-11-yl-4-((2′S,3R,4′S,5′R)-6-chloro-4′-(3-chloro-2-fluorophenyl)-2′-neopentyl-2-oxospiro[indoline-3,3′-pyrrolidine]-5′-carboxamido)-3-methoxybenzoate] | 15.4 ± 1.0 g | about 9.4% | 17.0 ± 1.1 g | 1260.8 ± 597.6*** mm^3 | 242.6 ± 49.9 mm^3 | 1.35 ± 0.64 g | 55.36% | 50.55% | slightly better inhibitory effect |  |  | 
2 | > 3000 µg/mL | COCCOCCOCCOC(=O)OC(C)OC(=O)c1ccc(NC(=O)[C@@H]2N[C@@H](CC(C)(C)C)[C@@]3(C(=O)Nc4cc(Cl)ccc43)[C@H]2c2cccc(Cl)c2F)c(OC)c1 (mixture of isomers) [rac-SIP-PEG-3, Rac-12-oxo-2,5,8,11,13-pentaoxapentadecan-14-yl-4-((2′S,3R,4′S,5′R)-6-chloro-4′-(3-chloro-2-fluorophenyl)-2′-neopentyl-2-oxospiro[indoline-3,3′-pyrrolidine]-5′-carboxamido)-3-methoxybenzoate] | 15.9 ± 1.8 g | about 7.5% | 17.2 ± 0.7 g | 260.1 ± 219.3*** mm^3 | 246.4 ± 23.6 mm^3 | 0.20 ± 0.20 g | 90.79% | 92.86% | stronger inhibitory effect | could be directly dissolved in physiological saline |  | 
3 | 30000 µg/mL (≈ 29.3 mM) | COCCOCCOCCOCCOCCOCCOCCOC(=O)OC(C)OC(=O)c1ccc(NC(=O)[C@@H]2N[C@@H](CC(C)(C)C)[C@@]3(C(=O)Nc4cc(Cl)ccc43)[C@H]2c2cccc(Cl)c2F)c(OC)c1 (mixture of isomers) [rac-SIP-PEG-7, Rac-24-oxo-2,5,8,11,14,17,20,23,25-nonoxaheptacosan-26-yl-4-((2′S,3R,4′S,5′R)-6-chloro-4′-(3-chloro-2-fluorophenyl)-2′-neopentyl-2-oxospiro[indoline-3,3′-pyrrolidine]-5′-carboxamido)-3-methoxybenzoate] | 16.1 ± 1.6 g | about 6.4% | 17.1 ± 0.7 g | 93.2 ± 65.2*** mm^3 | 247.6 ± 57.4 mm^3 | 0.08 ± 0.14 g | 96.38% | 97.06% | stronger inhibitory effect | could be directly dissolved in physiological saline |  | 
4 | > 8000 µg/mL | COCCOCCOCCOC(=O)OC(C)OC(=O)c1ccc(NC(=O)[C@@H]2N[C@@H](CC(C)(C)C)[C@@]3(C(=O)Nc4cc(Cl)ccc43)[C@H]2c2cccc(Cl)c2F)c(OC)c1 (single isomer, unassigned) [chiral-R-SIP-PEG-3] | 19.2 ± 1.2 g |  | 17.3 ± 0.9 g | 59.4 ± 46.3*** mm^3 | 252.9 ± 68.3 mm^3 | 0.06 ± 0.05 g | 97.90% | 97.84% | stronger inhibitory effect | could be directly dissolved in physiological saline | about 11% | 97.9%

Further lines, the molecule ahead of its results:

Row | Molecule | solubility at 24 h [1] | Body Weights X ± SD (g), End [2] | body weight decreased, compared with the solvent control group [2] | Body Weights X ± SD (g), Start [2] | Tumor volumes X ± SD (mm^3), End [3] | Tumor volumes X ± SD (mm^3), Start [3] | Weights of Tumor X ± SD [3] | Inhibition rate (%) on the basis of tumor volume [3] | Inhibition rate (%) on the basis of tumor weight [3] | inhibitory effect on tumor growth compared with PEG-free rac-SIP given by gastrointestinal administration [3] | dissolving in physiological saline for administration [4] | body weight increased, compared with the solvent control group ([2]; 30.0 mg/kg i.p.) | Inhibition rate (%) on the basis of tumor volume ([3]; listed as chiral-R-PEG-3)
5 | COc1cc(C(N)=O)ccc1NC(=O)[C@@H]1N[C@@H](CC(C)(C)C)C2(C(=O)Nc3cc(Cl)ccc32)[C@H]1c1cccc(Cl)c1F (mixture of isomers) [rac-SIP, rac-spiroindolinone pyrrolidinecarboxamide, reference compound] | < 100 µg/mL | 14.1 ± 1.6 g | about 18% | 17.1 ± 0.8 g | 1273.7 ± 506.9*** mm^3 | 249.4 ± 59.5 mm^3 | 1.37 ± 0.55 g | 54.89% | 49.69% |  |  |  | 
6 | COc1cc(C(=O)O)ccc1NC(=O)[C@@H]1N[C@@H](CC(C)(C)C)[C@@]2(C(=O)Nc3cc(Cl)ccc32)[C@H]1c1cccc(Cl)c1F (racemic) [rac-SIP-acid, rac-4-((2′S,3′R,4′S,5′R)-6-chloro-4′-(3-chloro-2-fluorophenyl)-2′-neopentyl-2-oxospiro[indoline-3,3′-pyrrolidine]-5′-carboxamido)-3-methoxybenzoic acid, reference compound] | < 100 µg/mL |  |  |  |  |  |  |  |  |  |  |  | 
7 | COc1cccc2c1C(=O)c1c(O)c3c(c(O)c1C2=O)C[C@@](O)(C(=O)CO)C[C@@H]3O[C@H]1C[C@H](N)[C@H](O)[C@H](C)O1 [Doxorubicin ADM, Doxorubicin, reference compound] |  | 13.7 ± 0.7 g |  | 17.4 ± 0.7 g | 1401.1 ± 658.2*** mm^3 | 241.1 ± 46.6 mm^3 | 1.41 ± 0.66 g | 50.38% | 48.27% |  |  |  | 
8 | Rac-4-((2′S,3′R,4′S,5′R)-6-chloro-4′-(3-chloro-2-fluorophenyl)-2′-neopentyl-2-oxospiro[indoline-3,3′-pyrrolidine]-5′-carboxamido)-3-methoxybenzoic acid methoxy polyethylene glycol 2000 carbonate [rac-SIP-MPEG-2000] |  | 16.3 ± 1.5 g | about 5.2% | 17.4 ± 1.0 g | 102.5 ± 58.5*** mm^3 | 251.3 ± 39.8 mm^3 | 0.09 ± 0.09 g | 96.02% | 96.70% | stronger inhibitory effect | could be directly dissolved in physiological saline |  | 

— patent US10471154B2, “Spirocyclic indolone polyethylene glycol carbonate compound, composition, preparation method and use thereof” (priority 2016, dated 2019)
